Measured values: patent US4895856A, “Derivatives of 5-pentylamino-5-oxopentanoic and 4-pentylamino-4-oxobutanoic acids with antagonistic activity towards cholecystokinin” (Rotta Research Laboratorium S.p.A., priority 1986, dated 1990)
Where two headings read alike, the source gives them in different places.

Legend:
pyloric sphincter = assay: Antispastic activity on pyloric contraction induced by CCK in rats; type: in vivo; conditions: for % inhibition of the pyloric contraction: CCK 8 mcg/kg i.p.; for ED50: Rattus norvegicus, ip, i.p. 15 minutes before CCK 8 mcg/kg i.p., read-out: ID50 (antispastic activity on the pyloric contraction induced by CCK)
Description: A dose of 8 mcg/kg i.p. of CCK was used, which induced a sub-maximal contraction of the pylorus. The antagonistic compounds were administered (i.p.) 15 minutes before the contractant. 10 minutes after administration of the contractant, the animals were treated per os with 25 ml/kg of H2 O. 5 minutes after the administration the animals were killed, their stomachs removed and the gastric content measured by removal with a syringe.
The % antispastic activity for each dose administered was calculated from the following formula: [formula] where V1 =the volume of gastric content of the group of animals treated with the drug plus the contractant.
V2 =the volume of gastric content of the group of animals treated with the contractant only.
V3 =the volume of gastric content of the control group of animals.
Various doses of the compounds were tested so as to enable the calculation of an ID50 value, that is the dose (in mg/kg i.p.) which is able to inhibit the contractant effect of CCK by 50%.
The results obtained are given in Table 6 where the effects obtained are expressed as the ID50.

gallbladder = assay: Antispastic activity on the gallbladder in mice (egg yolk-induced emptying); type: in vivo; conditions: for % inhibition of the emptying of the gallbladder: egg yolk; for ED50: Mus musculus, ip, read-out: ID50 (antispastic activity on contraction of the gallbladder induced by egg yolk)
Description: (§1) Emptying of the gall bladder was induced by a single oral administration of 1 ml of a 30% suspension (weight/volume) of lyophylised egg yolk in a physiological solution.
(§2) As stated above once it has been absorbed egg yoke induces a release of endogenous CCK.
(§3) The antagonistic compounds were administered intraperitoneally (i.p.) 15 minutes before the contractant.
(§4) The % antispastic activity for each dose was calculated from the following formula: [formula] where P1 =the average weight of the gallbladders of the group of animals treated with the drug plus the contractant.
(§5) P2 =the average weight of the gallbladders of the group of animals treated with the contractant only.
(§6) P3 --the average weight of the gallbladders of the control group of animals.
(§7) The results obtained are given in Table 5 where the effects obtained are expressed as the ID50.

pancreas = assay: Protective activity in experimental pancreatitis induced by sodium taurocholate in rats; type: in vivo; conditions: for ED50: Rattus norvegicus, ip, taurocholate pancreatitis
Description: The method described by Aho et al. (Scandinavian J. Gastroenterology 15 (1980), 411-16) was followed.
Male rats weighing approximately 250 g were subjected to laparotomy and the pancreas exposed. 0.3 ml of a 6% solution of sodium taurocholate were injected directly into the pancreatic tissue.
The products under examination were administered intraperitoneally (i.p.) 30 minutes before the operation and 3 hours after the operation.
6 hours after the laparotomy, blood was taken from the retro-orbital plexus after anaesthesia with ether, the animals were killed and the pancreas was removed and weighed. The activity of the serum amylase was determined by the Ceska method (Clin. Chim. Acta 26 (1969), 437-444).
The compounds were tested at various doses so as to enable the calculation of an ID50 value, that is the dose (in mg/kg i.p.) which is able to inhibit the toxic effect of the sodium taurocholate by 50%, expressed both as a % inhibition of the increase in weight of the pancreas and as a % inhibition of the increase in serum amylase.

[1] = Antispastic activity on the gallbladder in mice (egg yolk-induced emptying); type: in vivo; conditions: mouse, in vivo, ip, 75 mg/kg, read-out: death of the animals treated
Description: as §1, §2, §3, §4, §5, §6, §7

[2] = biological target: T1, cholecystokinin receptors of ox gallbladder membranes (Bos taurus, UniProt A6QLH2); assay: Inhibition of binding of (125-I)-Bolton Hunter-CCK-8 to ox gallbladder membranes; conditions: 2 h at 25° C., pH 7.4, read-out: IC50 (displacement of 50% of the (125-I)-CCK-8 from the receptors)
T1 sequence (A6QLH2 1-427): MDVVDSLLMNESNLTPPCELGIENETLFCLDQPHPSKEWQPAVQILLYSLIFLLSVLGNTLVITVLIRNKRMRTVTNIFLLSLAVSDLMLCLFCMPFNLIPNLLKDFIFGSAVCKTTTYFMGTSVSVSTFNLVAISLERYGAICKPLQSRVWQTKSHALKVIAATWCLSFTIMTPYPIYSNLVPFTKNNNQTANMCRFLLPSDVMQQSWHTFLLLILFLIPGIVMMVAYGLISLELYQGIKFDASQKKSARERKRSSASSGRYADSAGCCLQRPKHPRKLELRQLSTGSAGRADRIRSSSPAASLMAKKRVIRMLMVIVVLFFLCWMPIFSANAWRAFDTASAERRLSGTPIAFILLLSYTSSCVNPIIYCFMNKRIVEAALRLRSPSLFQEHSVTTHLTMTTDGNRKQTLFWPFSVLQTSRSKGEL
Description: The capacity of some compounds of the invention to inhibit the binding of (125-I)-Bolton Hunter-CCK-8 to the cholecystokinin receptors of ox gallbladder membranes was evaluated by comparison with the displacement induced by cold (unmarked) CCK.
The ox gallbladder cell membranes were prepared by homogenisation with Tris buffer (pH 7.4) and centrifuging of the homogenate at 50,000 gravity for 10 minutes. The membranes were then incubated together with the radioactive tracer and the compounds under study for 2 h at 25° C.
After the supernatant liquid had been discarded, the radioactivity associated with the pellet was determined with a liquid scintillator. The specific binding was determined as the difference between the binding in the absence and in the presence of 10^-6 M CCK-8.

[3] = i.p. 15 minutes before the contractant
[4] = read-out: ID50, inhibition of pancreas weight increase
[5] = read-out: ID50, inhibition of serum amylase increase

Compound | % inhibition of the pyloric contraction (pyloric sphincter; 0.03 mg/kg i.p.) [%] | % inhibition of the pyloric contraction (pyloric sphincter; 0.1 mg/kg i.p.) [%] | % inhibition of the pyloric contraction (pyloric sphincter; 0.3 mg/kg i.p.) [%] | ED50 (pyloric sphincter) [mg/kg] | % inhibition of the emptying of the gallbladder (gallbladder; 0.1 mg/kg i.p.) [%] | % inhibition of the emptying of the gallbladder (gallbladder; 0.3 mg/kg i.p.) [%] | ED50 (gallbladder; [3]) [mg/kg] | % inhibition amylase increase (pancreas; 3 mg/kg i.p. + taurocholate) [%] | % inhibition weight increase (pancreas) (pancreas; 3 mg/kg i.p. + taurocholate) [%] | % ratio pancreas weight / animal weight (pancreas; 3 mg/kg i.p. + taurocholate) [%] | amylase in the serum (pancreas; 3 mg/kg i.p. + taurocholate) [U/ml] | % inhibition amylase increase (pancreas; 10 mg/kg i.p. + taurocholate) [%] | % inhibition weight increase (pancreas) (pancreas; 10 mg/kg i.p. + taurocholate) [%] | % ratio pancreas weight / animal weight (pancreas; 10 mg/kg i.p. + taurocholate) [%] | amylase in the serum (pancreas; 10 mg/kg i.p. + taurocholate) [U/ml] | ED50 (pancreas; [4]) [mg/kg] | ED50 (pancreas; [5]) [mg/kg] | % inhibition of the pyloric contraction (pyloric sphincter; 1.0 mg/kg i.p.) [%] | % inhibition of the emptying of the gallbladder (gallbladder; 1.0 mg/kg i.p.) [%] | further results
CCCCCN(CCCCC)C(=O)C(CCC(=O)O)NC(=O)c1ccc2ccccc2c1 (racemic) [Compound 19, D,L-4-(2-naphthoylamino)-5-(di-n-pentylamino)-5-oxopentanoicacid] | 28.7 | 70.7 | 95.5 | 0.05 | 41.2 | 83.7 | 0.11 | 76.7 | 73.3 | 0.43 | 10.0 | 90.7 | 93.3 | 0.40 | 8.8 | 1.7 | 1.1 |  |  | % inhibition of the pyloric contraction (pyloric sphincter; 0.01 mg/kg i.p.): 17.3%; % inhibition of the emptying of the gallbladder (gallbladder; 0.03 mg/kg i.p.): 12.1%; contraction of the gallbladder induced by the egg yolk (in words) (gallbladder; 0.3 mg/kg): almost completely blocks the contraction; % inhibition amylase increase (pancreas; 1 mg/kg i.p. + taurocholate): 45.3%; % inhibition weight increase (pancreas) (pancreas; 1 mg/kg i.p. + taurocholate): 33.3%; % ratio pancreas weight / animal weight (pancreas; 1 mg/kg i.p. + taurocholate): 0.49%; amylase in the serum (pancreas; 1 mg/kg i.p. + taurocholate): 12.7 U/ml; ED50 (pancreas; read-out: dose inhibiting the weight increase of the pancreas and the serum amylase increase by 50%): ~1.5 mg/kg
CCCCCN(CCCCC)C(=O)C(CC(=O)O)NC(=O)c1ccc2ccccc2c1 (stereo not shown) [Compound 26] | 24.8 | 50.0 | 57.7 | 0.14 | 17.0 | 30.8 | 0.53 |  |  |  |  |  |  |  |  |  |  | 78.9 | 66.7 | 
CCCCCN(CCCOC)C(=O)C(CCC(=O)O)NC(=O)c1ccc2ccccc2c1 (stereo not shown) [Compound 28] | 12.5 | 29.2 | 46.7 | 0.3 | 16.5 | 36.2 | 0.62 | 45.0 | 29.2 | 0.52 | 11.0 | 68.3 | 50.0 | 0.47 | 9.6 | 9.2 | 4.1 | 73.0 | 58.8 | % inhibition amylase increase (pancreas; 20 mg/kg i.p. + taurocholate): 88.3%; % inhibition weight increase (pancreas) (pancreas; 20 mg/kg i.p. + taurocholate): 66.6%; % ratio pancreas weight / animal weight (pancreas; 20 mg/kg i.p. + taurocholate): 0.43%; amylase in the serum (pancreas; 20 mg/kg i.p. + taurocholate): 8.4 U/ml
COc1ccc(Cc2nccc3cc(OC)c(OC)cc23)cc1OC [PAPAVERINE, papaverine, reference compound] |  |  |  |  |  |  |  |  |  |  |  |  |  |  |  |  |  |  |  | % inhibition of the emptying of the gallbladder (gallbladder; 25 mg/kg i.p.): 0%; % inhibition of the emptying of the gallbladder (gallbladder; 50 mg/kg i.p.): 0%; % inhibition of the emptying of the gallbladder (gallbladder; 75 mg/kg i.p.): 26.1%; ID50 (antispastic activity on contraction of the gallbladder induced by egg yolk) (gallbladder; [3]): INACTIVE; antispastic activity on the gallbladder (in words) (gallbladder; only at the toxic dose of 75 mg/kg): slightly active; mortality [1]: 20%
CCK-8: cold (unmarked) CCK; cholecystokinin |  |  |  |  |  |  |  |  |  |  |  |  |  |  |  |  |  |  |  | IC50 [2]: 0.2 nM
